From PubChem BioAssay AID1845216 (Molecular Pharmacology Branch, DTP, NCI, 2023)

Test system: SW 982 tumor spheroid viability
Assay: Anticancer human tumor SW 982 cell line growth inhibition;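 also: spheroids exposed to compound for 7 days before readout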
Conditions: spheroids with HUVEC and MSC; for IC50: curve of first compound; for viability, T/C: stronger effect = lower value
Description: Multicellular complex tumor spheroid response to DNA repair inhibitors in combination with DNA-damaging drugs
This study explores the anticancer activities of DNA-damaging drugs and inhibitors of DNA damage repair, both as single agents and in combinations. Complex tumor spheroids comprised of malignant cells, endothelial cells and mesenchymal stem cells served as an in vitro model for human solid tumors. This model system incorporates physiologically relevant features and patient-derived or established malignant cell lines with clinically relevant genetic alterations from many tumor types. Twenty-six patient-derived or established malignant cell lines were evaluated representing sarcoma, melanoma, small cell lung cancer (SCLC), non-small cell lung cancer (NSCLC), as well as bladder, ovarian and pancreatic cancers. The concentration ranges selected for each drug and investigational agent were based upon clinically achievable concentrations if the clinical Cmax of the agent was known.
Compounds. The drugs and compounds olaparib (NSC753686), talazoparib (NSC767125), berzosertib (NSC777718), elimusertib (NSC800525), nedisertib (NSC802822), VX-984 (NSC792969), AZD-1390 (NSC803789), temozolomide (NSC362856), topotecan (NSC609699), trabectedin (NSC813783), staurosporine (NSC755774), and gemcitabine (NSC613327) were obtained from the National Cancer Institute (NCI) Developmental Therapeutics Program Chemical Repository. The FDA-approved anticancer drug set is available from the Developmental Therapeutics Program at https://dtp.cancer.gov/organization/dscb/obtaining/available_plates.htm. […] The stock solutions were prepared in dimethyl sulfoxide (DMSO, Sigma-Aldrich, St. Louis, MO, cat. D2650) at 400-fold the tested concentration and stored at -70 degrees C. Prior to their use, the stock solutions were diluted in fresh medium and the final DMSO concentration in the assay was 0.25% (v/v). All drugs and investigational agents were tested over a range starting from a high concentration at or near the clinical Cmax and decreasing in half-log increments. If the clinical Cmax for an agent had not been determined, the highest concentration tested was 10 microM.
Cell Lines. The patient-derived cancer cell (PDC) lines: 156681-154-R-J1-PDC, 283228-195-R-J1-PDC, 287954-098-R-J1-PDC, 292921-168-R-J2-PDC, 349418-098-R-PDC, 425362-245-T-J1-PDC, 556581-035-R-J1-PDC, and BL0293-F563-PDC were received from the NCI Patient-Derived Models Repository (PDMR, https://pdmr.cancer.gov). The established cell lines HS-SY-2 (RRID:CVCL_8719), MPNST, and SYO-1 (RRID:CVCL_7146) were obtained from the Sloan Kettering Institute. The alveolar soft parts sarcoma cell line ASPS-1 (RRID:CVCL_S738) was established at the NCI and grown from internal seed stocks. The following established cell lines were purchased from the American Type Culture Collection (ATCC, Manassas, VA): G-401 (ATCC, cat. CRL-1441, RRID:CVCL_0270), SW982 (ATCC, cat. HTB-93, RRID:CVCL_1734), VA-ES-BJ (ATCC, cat. CRL-2138, RRID:CVCL_1785), NCI-H719 (ATCC, cat. CRL-5837, RRID:CVCL_1582), NCI-H196 (ATCC, cat. CRL-5823, RRID:CVCL_1509), NCI-H841 (ATCC, cat. CRL-5845, RRID:CVCL_1595), NCI-H1618 (ATCC, cat. CRL-5879, RRID:CVCL_1480), NCI-H1876 (ATCC, cat. CRL-5902, RRID:CVCL_1503), DMS 114 (ATCC, cat. CRL-2066; RRID:CVCL_1174), NCI-H211 (ATCC, cat. CRL-5824; RRID:CVCL_1529), and SW 1271 (ATCC, cat. CRL-2177, RRID:CVCL_1716). The small cell lung cancer cell line COR-L88 was purchased from Sigma-Aldrich (cat. 92031917-1VL, RRID:CVCL_1141). The non-small cell lung cancer cell lines NCI-H226 (RRID:CVCL_1544) and NCI-H322M (RRID:CVCL_1557) were established at the NCI and grown from internal seed stocks. Pooled donor human umbilical vein endothelial cells (HUVEC, Lonza, cat. CC-2519) and human mesenchymal stem cells (hMSC, Lonza, cat. PT-2501) were purchased from Lonza (Walkersville, MD).
Cell Culture. All cells were maintained in an incubator at 37 degrees C and 5% CO2 with 95% humidity. […]

CNCc1ccc(-c2cc(-c3nc(-c4ccc(S(=O)(=O)C(C)C)cc4)cnc3N)on2)cc1 + CC[C@@]1(O)C(=O)OCc2c1cc1n(c2=O)Cc2cc3c(CN(C)C)c(O)ccc3nc2-1
IC50 (second compound 0.003 µM): 207 nM
IC50 (second compound 0.00949 µM): 207 nM
IC50 (second compound 0.03 µM): 180 nM
IC50 (second compound 0.0949 µM): 134 nM
IC50 (second compound 0.3 µM): 48.6 nM
viability, T/C (second compound 0.003 µM, first compound 0.00949 µM): 96.2%
viability, T/C (second compound 0.003 µM, first compound 0.03 µM): 91%
viability, T/C (second compound 0.003 µM, first compound 0.0949 µM): 66.1%
viability, T/C (second compound 0.003 µM, first compound 0.3 µM): 36.4%
viability, T/C (second compound 0.003 µM, first compound 0.949 µM): 33.8%
viability, T/C (second compound 0.003 µM, first compound 3 µM): 11.2%
viability, T/C (second compound 0.00949 µM, first compound 0.00949 µM): 81.5%
viability, T/C (second compound 0.00949 µM, first compound 0.03 µM): 85.8%
viability, T/C (second compound 0.00949 µM, first compound 0.0949 µM): 69.5%
viability, T/C (second compound 0.00949 µM, first compound 0.3 µM): 37.8%
viability, T/C (second compound 0.00949 µM, first compound 0.949 µM): 28.6%
viability, T/C (second compound 0.00949 µM, first compound 3 µM): 12.7%
viability, T/C (second compound 0.03 µM, first compound 0.00949 µM): 80%
viability, T/C (second compound 0.03 µM, first compound 0.03 µM): 79.1%
viability, T/C (second compound 0.03 µM, first compound 0.0949 µM): 61%
viability, T/C (second compound 0.03 µM, first compound 0.3 µM): 37.7%
viability, T/C (second compound 0.03 µM, first compound 0.949 µM): 32.4%
viability, T/C (second compound 0.03 µM, first compound 3 µM): 17.5%
viability, T/C (second compound 0.0949 µM, first compound 0.00949 µM): 83.3%
viability, T/C (second compound 0.0949 µM, first compound 0.03 µM): 75.9%
viability, T/C (second compound 0.0949 µM, first compound 0.0949 µM): 57.2%
viability, T/C (second compound 0.0949 µM, first compound 0.3 µM): 31.8%
viability, T/C (second compound 0.0949 µM, first compound 0.949 µM): 25.1%
viability, T/C (second compound 0.0949 µM, first compound 3 µM): 12.4%
viability, T/C (second compound 0.3 µM, first compound 0.00949 µM): 53.1%
viability, T/C (second compound 0.3 µM, first compound 0.03 µM): 57.2%
viability, T/C (second compound 0.3 µM, first compound 0.0949 µM): 45.5%
viability, T/C (second compound 0.3 µM, first compound 0.3 µM): 23.8%
viability, T/C (second compound 0.3 µM, first compound 0.949 µM): 20.2%
viability, T/C (second compound 0.3 µM, first compound 3 µM): 6.34%

[2H]c1nc(C)nc([2H])c1-c1cc(NC[C@@H](C)c2cccc3c(C(=O)NC)ccnc23)ncn1 + CC[C@@]1(O)C(=O)OCc2c1cc1n(c2=O)Cc2cc3c(CN(C)C)c(O)ccc3nc2-1
IC50 (second compound 0.003 µM): > 10000 nM
IC50 (second compound 0.00949 µM): > 10000 nM
IC50 (second compound 0.03 µM): > 10000 nM
IC50 (second compound 0.0949 µM): > 10000 nM
IC50 (second compound 0.3 µM): > 10000 nM
viability, T/C (second compound 0.003 µM, first compound 0.0316 µM): 90.1%
viability, T/C (second compound 0.003 µM, first compound 0.1 µM): 97.5%
viability, T/C (second compound 0.003 µM, first compound 0.316 µM): 103%
viability, T/C (second compound 0.003 µM, first compound 1 µM): 104%
viability, T/C (second compound 0.003 µM, first compound 3.16 µM): 101%
viability, T/C (second compound 0.003 µM, first compound 10 µM): 101%
viability, T/C (second compound 0.00949 µM, first compound 0.0316 µM): 89.1%
viability, T/C (second compound 0.00949 µM, first compound 0.1 µM): 89.4%
viability, T/C (second compound 0.00949 µM, first compound 0.316 µM): 89.2%
viability, T/C (second compound 0.00949 µM, first compound 1 µM): 95.2%
viability, T/C (second compound 0.00949 µM, first compound 3.16 µM): 82.1%
viability, T/C (second compound 0.00949 µM, first compound 10 µM): 78%
viability, T/C (second compound 0.03 µM, first compound 0.0316 µM): 77.4%
viability, T/C (second compound 0.03 µM, first compound 0.1 µM): 78%
viability, T/C (second compound 0.03 µM, first compound 0.316 µM): 83.7%
viability, T/C (second compound 0.03 µM, first compound 1 µM): 84.8%
viability, T/C (second compound 0.03 µM, first compound 3.16 µM): 95.4%
viability, T/C (second compound 0.03 µM, first compound 10 µM): 81.8%
viability, T/C (second compound 0.0949 µM, first compound 0.0316 µM): 69.7%
viability, T/C (second compound 0.0949 µM, first compound 0.1 µM): 72.5%
viability, T/C (second compound 0.0949 µM, first compound 0.316 µM): 76.5%
viability, T/C (second compound 0.0949 µM, first compound 1 µM): 70.9%
viability, T/C (second compound 0.0949 µM, first compound 3.16 µM): 84.5%
viability, T/C (second compound 0.0949 µM, first compound 10 µM): 73.5%
viability, T/C (second compound 0.3 µM, first compound 0.0316 µM): 58.2%
viability, T/C (second compound 0.3 µM, first compound 0.1 µM): 55.4%
viability, T/C (second compound 0.3 µM, first compound 0.316 µM): 54.3%
viability, T/C (second compound 0.3 µM, first compound 1 µM): 62.5%
viability, T/C (second compound 0.3 µM, first compound 3.16 µM): 45.1%
viability, T/C (second compound 0.3 µM, first compound 10 µM): 52.1%
